For test [1], the system named is U118 cells. The test is described as follows: Cell proliferation (viable cell count, Trypan blue exclusion). Conditions: cells counted at 3, 6 and 9 days post treatment, dose- and time-dependent. It counts as cell-based, human. The procedure: (§1) U87 MG and U118 MG (hereafter abbreviated as U87, U118 respectively) human glioblastoma (glioma) cell lines were kindly provided by Dr. Hui Zhang and Dr. Hong Sun. MCF7 (human breast cancer), H1299 (non-small cell lung carcinoma), and PC3 (human prostate cancer) cell lines were obtained from Dr. Giuseppe Pizzorno. Normal human dermal fibroblasts, HDF and normal human mammary epithelial cells, HMEpC, were purchased from Cell Applications (San Diego, Calif.). U118, U87, and MCF7 cultures were grown in high-glucose DMEM supplemented with 10% Fetal Bovine Serum (FBS, HyClone, Waltham, Mass.) and 1% Penicillin/Streptomycin. H1299 was grown in RPMI with 10% FBS and 1% Pen/Strep. PC3 cells were in F12K Medium with 10% FBS and 1% antibiotics. […] Cell number was measured by a hemacytometer (Hausser Scientific, Horsham, Pa.). Cell population doubling time (Td) was calculated from the exponential portion of the growth curve using the equation Td=0.693t/ln(Nt/N0), where t is time, and Nt and N0 represent cell numbers at time t and initial time, respectively (Y. Zhang, et al., Cancer Res 62 (2002) 1205-12). […]
(§2) To examine the effects of resveratrol on glioma cells, 5×10^4 U87 or U118 glioblastoma (Grade IV glioma cell) lines were plated in 60 mm dishes. […] Cells were then trypsinized and cell numbers counted at 3, 6, and 9 days post treatment.

Test [2] deals with U87 cells. The test is described as above. The format is cell-based, human. The note with it: cells counted at 3, 6 and 9 days post treatment, dose- and time-dependent. The procedure: as §1, §2
The test system of test [3] is U87 cells. The test is described as follows: Cellular hypertrophy / cell morphology. The format is cell-based, human. From the text:
Specifically, resveratrol transformed spindle-shaped glioma cells to enlarged and irregular flatten-shaped ones. The mean diameter of the resveratrol-treated U87 was 5 fold longer than the diameter parallel to the spindle axis of the mock-or vehicle-treated glioma cells. In contrast, mock and vehicle (acetone) treatment had no effect on inducing cellular hypertrophy.
It was then examined whether depletion of RNF20 could induce cellular senescence in glioma cells. Depletion of RNF20 induced similar cellular hypertrophy as observed with resveratrol treatment. Specifically, depletion of RNF20 transformed spindle-shaped glioma cells into extremely enlarged and irregular flatten-shaped ones (data not shown).

The test system of test [4] is U118 cells. The test is described as follows: Cellular hypertrophy / cell morphology. The format is cell-based, human. The note with it: resveratrol treatment.
The test system of test [5] is U118 glioma cells. The experiment in a line: Senescence-associated-β-galactosidase (SA-β-gal) staining. The format is cell-based, human. The note with it: resveratrol-induced hypertrophic cells. The procedure: (§3) Senescence-β-galactosidase staining was performed with a kit (Cat. #9860, Cell Signaling, Danvers, Mass.) according to manufacturer's protocol. Briefly, cells in 35 mm well were washed with 2 mL PBS, fixed for 10-15 minutes in 2 mL fixative solution, washed twice with 2 mL PBS, and then incubated in SA-β-gal staining solution overnight at 37° C. To determine whether cellular hypertrophy induced by resveratrol was associated with cellular senescence of glioma cells, expression of senescence-associated-β-galactosidase (SA-β-gal) marker was tested (G. P. Dimri, et al., Proc Natl Acad Sci USA 92 (1995) 9363-7; G. P. Dimri, et al., Biol Signals 5 (1996) 154-62).

In test [6] the test system is U87 glioma cells. The description is as above. It counts as cell-based, human. The note with it: resveratrol-induced hypertrophic cells. The method, then:
as §3

The subject of test [7] is U118 cells. The test is described as follows: Clonogenic assay (plating efficiency). It counts as cell-based, human. Conditions: up to 9 days treatment, re-plated 1000-4000 cells, 14 days without resveratrol, dose-dependent. The method, then:
(§4) Monolayer cultures of glioma cells were trypsinized and appropriate cell dilutions were re-plated. After 14 days, cultured cells were stained with 0.4% Coomassie Blue G250 in 50% methanol and 5% acetic acid. Colonies of 50 cells or more were counted. Plating efficiencies (PE) were calculated using the formula PE=(number of colonies counted/number of cells seeded)×100%. […] Monolayer cultures of glioma cells were trypsinized and seeded 1000, 2000, and 4000 cells separately in 60 mm culture dishes for incubation without further resveratrol treatment. After two weeks, these cell cultures were stained with 0.4% Coomassie Blue G250 in 50% methanol and 5% acetic acid. Colonies that contained more than 50 cells were counted. Cell clonogenicity was calculated with plating efficiencies (PE) using the formula PE=(number of colonies counted/number of cells seeded)×100%.

Test [8] concerns U87 cells. The experiment in a line: Clonogenic assay (plating efficiency). The format is cell-based, human. The note with it: up to 9 days treatment, re-plated 1000-4000 cells, 14 days without resveratrol, dose-dependent. The method, then:
as §4

The test system of test [9] is U118 xenograft. The experiment in a line: Growth of human tumor xenograft from resveratrol-pretreated cells. The format is in vivo, nude (nu/nu) mice. The note with it: U118 treated 9 days in culture, 2×10^6 viable cells s.c. in nude mice; volume at 125 days post injection. The procedure: (§5) U87 or U118 Cells (2,000,000 in 0.1 ml PBS) were injected subcutaneously in the right flank of the female nude (nu/nu) mice (4-6 weeks old; Charles River Laboratories, Wilmington, Mass.). Five nude mice were used for each group. U87 tumor volume was measured at 27 days post injection while U118 tumor volume at 125 days post injection. When tumors were palpable, they were measured by a Vernier caliper in indicated days after injection. Tumor volume (TV) was calculated as follows: TV (mm^3)=LXW^2/2, where L is the longest dimension of the tumor (in mm), and W is the shortest dimension of the tumor. […] Glioma cells were then trypsinized, and 2×10^6 viable cells (by Trypan blue exclusion assay) were collected in 0.1 ml PBS. These cells were subsequently injected subcutaneously in the right flank of nude mice [female (nu/nu), 4-6 weeks old, 5 mice per group]. When the tumor was palpable, the size was measured with a Vernier caliper. Tumor volume was calculated (TV) using the formula: TV (mm^3)=LXW^2/2, in which L was the longest dimension of the tumor (in mm), and W was the shortest dimension of the tumor.
On the technique in general: A xenograft is tissue or cells of one species grown in another, often human tumour cells in immunodeficient mice.

Test [10] concerns U87 xenograft. Described as above. It counts as in vivo, nude (nu/nu) mice. Conditions: U87 treated 9 days in culture, 2×10^6 viable cells s.c. in nude mice; volume at 27 days post injection. The procedure:
as §5

Test [11] relates to mono-ubiquitination of histone H2B at K120 (uH2B). The test is described as follows: Western analysis of uH2B, acute (4-hour) resveratrol treatment. It counts as cell-based, human. The method, then:
(§6) For short-term resveratrol treatment, cells in 60 mm dishes were allowed to grow to 40%-50% confluency. Their original media were changed to 5 ml DMEM media containing glucose (4.5 g/L) as the only carbon source (without both L-glutamine and sodium pyruvate). After one hour of media change, cells were collected as non-treated or treated with 5 μL acetone or resveratrol in 5 μL acetone vehicle for 4 hours and then collected for Western analysis. For long-term resveratrol treatment, 3×10^5 of U87 or U118 glioma cells were plated in 100 mm dishes. One day later, the culture media were replaced with fresh medium (10 mL/dish). […]
(§7) Cultured cells were harvested on ice (3-5 min) by scraping in the medium, centrifuged with about 300 relative centrifugal forces (RCF) for 2 minutes. […] Total protein was separated by 12% SDS polyacrylamide gel electrophoresis and analyzed with antibodies to H2B (Millipore, Billerica, Mass.), mono-ubiquitinated H2B (uH2B, MediMabs, Montreal, Quebec, Canada), RNF20 (Abcam, Cambridge, Mass.), p53 (Santa Cruz Biotechnology, Santa Cruz, Calif.). Immunoreactive bands were detected using SuperSignal kit (Thermo Scientific, Waltham, Mass.). […]

The test system is the same in test [12]. The test is described as follows: Western analysis of uH2B, chronic (up to 9-day) resveratrol treatment. It counts as cell-based, human. The method, then:
as §6, §7

Each structure is given as a SMILES string.

Consider `Oc1ccc(/C=C/c2cc(O)cc(O)c2)cc1` [resveratrol, 3,4′,5-trihydroxy-trans-stilbene], for which the “proliferation of glioma cells (viable cell number)” value in test [1] and in test [2] was “significantly inhibited proliferation” each time. In addition, the “mean diameter of treated cells versus diameter parallel to the spindle axis of mock- or vehicle-treated cells” value in test [3] stood at 5 fold. Moreover, the “cellular hypertrophy (cell volume and cell morphology)” value was “induced dramatic changes in cell volume and cell morphology” in test [3] (resveratrol treatment); “induced dramatic changes in cell volume and cell morphology” in [4]. Also, the “expression of SA-β-gal senescence marker” value in test [5] and in [6] was “SA-β-gal was detected” in each case. Besides, the “clonogenicity (plating efficiency, colonies of more than 50 cells)” value in [7] and in test [8] was “marked decrease in their propensity for forming colonies” in each case. Besides, the “tumorigenicity (tumor volume) in xenograft model” value in test [9] and in [10] was “inhibited the tumorigenecity” each time. For the same molecule, the “uH2B level (Western)” value in [11] (10, 100, 500 μM for 4 h, U87, U118, MCF7, H1299, PC3, HDF, HMEpC) is “inhibited uH2B within 4 hours in a dose-dependent manner”; in [11] (acute incubation, high dose 500 μM) it was “effective in inhibiting uH2B”; in test [12] (U87, chronic treatment up to 9 days, 6, 20, 60 μM) it was “inhibited uH2B”; in [12] (U118, chronic treatment up to 9 days, 6, 10, 20 μM), “inhibited uH2B”.
